# Results as given in article PMC5428567, “Pentameric ligand-gated ion channels exhibit distinct transmembrane domain archetypes for folding/expression and function” (Scientific Reports, 2017).
# Tests used:
# ELIC L209A = target: T1, ELIC L209A (Dickeya chrysanthemi, UniProt P0C7B7, L209A); assay: TEVC cysteamine-induced current, ELIC L209A; format: cell-based; conditions: Xenopus laevis oocytes; ±SD; n=8
# T1 construct: expressed in transfected cells; host or cells: Xenopus laevis oocytes injected with cRNA
# T1 sequence (P0C7B7 whole entry L209A): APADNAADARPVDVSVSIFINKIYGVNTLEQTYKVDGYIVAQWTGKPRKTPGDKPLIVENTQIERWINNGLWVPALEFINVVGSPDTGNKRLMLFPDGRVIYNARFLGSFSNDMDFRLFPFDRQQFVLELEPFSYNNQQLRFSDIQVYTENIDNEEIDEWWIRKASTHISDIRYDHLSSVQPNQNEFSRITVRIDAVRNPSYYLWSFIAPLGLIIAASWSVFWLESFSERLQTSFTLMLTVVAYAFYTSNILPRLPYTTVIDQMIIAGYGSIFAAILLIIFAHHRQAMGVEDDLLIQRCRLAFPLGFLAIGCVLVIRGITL
# Text: (§1) To examine how different physical interactions at the M4-M1/M3 interface in both GLIC and ELIC (Fig. 1) influence function, we mutated each residue to Ala, and characterized how each mutation influenced agonist-induced channel gating using two-electrode voltage clamp electrophysiology. Both GLIC and ELIC are cation-selective ion channels that transiently gate open in response to agonist binding, although GLIC responds to protons while ELIC responds to primary amines, such as cysteamine, [34].
# (§2) Stage V–VI oocytes were collected as previously described, injected with cRNA, and allowed to incubate one to four days at 16 °C in ND96 + buffer (5 mM HEPES, 96 mM NaCl, 2 mM KCl, 1 mM MgCl2, 1 mM CaCl2, and 2 mM Pyruvate). Whole cell currents were recorded using a two-electrode voltage clamp apparatus (OC-725C oocyte clamp; Holliston, MA). For GLIC, whole cell currents were recorded from injected oocytes (3–20 ng cRNA) immersed in MES buffer (140 mM NaCl, 2.8 mM KCl, 2 mM MgCl2, and 10 mM MES). Currents through the plasma membrane in response to pH jumps (pH 7.3 down to the indicated pH values) were measured with the transmembrane voltage clamped at voltages between −20 mV and −40 mV depending on the level of expression, typically −20 mV. […]
# ELIC W219A + F307A = target: T2, ELIC W219A + F307A (Dickeya chrysanthemi, UniProt P0C7B7, F307A/W219A); assay: TEVC cysteamine-induced current, ELIC W219A + F307A; format: cell-based; conditions: Xenopus laevis oocytes; ±SD; n=8
# T2 construct: expressed in transfected cells; host or cells: Xenopus laevis oocytes injected with cRNA (pTLN plasmid)
# T2 sequence (P0C7B7 whole entry W219A/F307A): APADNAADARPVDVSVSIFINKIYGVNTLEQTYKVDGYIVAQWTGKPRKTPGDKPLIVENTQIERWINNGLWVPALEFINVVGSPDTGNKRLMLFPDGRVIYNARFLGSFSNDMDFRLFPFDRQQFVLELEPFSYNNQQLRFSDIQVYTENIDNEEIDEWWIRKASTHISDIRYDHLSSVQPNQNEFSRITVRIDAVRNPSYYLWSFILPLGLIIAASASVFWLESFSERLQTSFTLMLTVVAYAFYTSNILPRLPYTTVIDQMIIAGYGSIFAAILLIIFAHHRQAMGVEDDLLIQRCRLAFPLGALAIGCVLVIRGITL
# Text: as §1, §2
# ELIC I296A = system: ELIC I296A; parameters: method as in Henault et al.[9], [18], [29]; conditions: Xenopus laevis oocytes; ±SD; n=10; ref Henault et al.[9], [18], [29]; cited from earlier work
# ELIC L278A = target: T3, ELIC L278A (Dickeya chrysanthemi, UniProt P0C7B7, L278A); assay: TEVC cysteamine-induced current, ELIC L278A; format: cell-based; conditions: Xenopus laevis oocytes; ±SD; n=8
# T3 construct: expressed in transfected cells; host or cells: Xenopus laevis oocytes injected with cRNA (pTLN plasmid)
# T3 sequence (P0C7B7 whole entry L278A): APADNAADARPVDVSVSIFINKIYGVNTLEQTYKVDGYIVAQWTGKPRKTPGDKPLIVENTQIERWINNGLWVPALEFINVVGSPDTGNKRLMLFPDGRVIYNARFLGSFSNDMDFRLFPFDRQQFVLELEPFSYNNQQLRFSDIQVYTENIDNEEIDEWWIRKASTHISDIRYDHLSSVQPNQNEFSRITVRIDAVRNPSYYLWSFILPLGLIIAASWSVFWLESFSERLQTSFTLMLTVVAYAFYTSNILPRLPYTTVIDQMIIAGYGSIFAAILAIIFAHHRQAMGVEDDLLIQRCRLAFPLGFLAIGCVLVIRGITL
# Text: as §1, §2
# ELIC I215A = target: T4, ELIC I215A (Dickeya chrysanthemi, UniProt P0C7B7, I215A); assay: TEVC cysteamine-induced current, ELIC I215A; format: cell-based; conditions: Xenopus laevis oocytes; ±SD; n=8
# T4 construct: expressed in transfected cells; host or cells: Xenopus laevis oocytes injected with cRNA
# T4 sequence (P0C7B7 whole entry I215A): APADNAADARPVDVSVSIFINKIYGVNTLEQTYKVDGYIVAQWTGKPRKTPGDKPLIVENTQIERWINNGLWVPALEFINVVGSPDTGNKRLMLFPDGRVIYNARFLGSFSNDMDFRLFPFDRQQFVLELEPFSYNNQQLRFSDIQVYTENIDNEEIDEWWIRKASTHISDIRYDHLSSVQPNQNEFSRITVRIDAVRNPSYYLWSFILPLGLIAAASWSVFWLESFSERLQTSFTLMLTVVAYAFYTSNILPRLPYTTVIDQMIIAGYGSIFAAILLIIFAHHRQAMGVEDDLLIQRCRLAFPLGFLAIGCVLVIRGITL
# Text: as §1, §2
# ELIC L204A = target: T5, ELIC L204A (Dickeya chrysanthemi, UniProt P0C7B7, L204A); assay: TEVC cysteamine-induced current, ELIC L204A; format: cell-based; conditions: Xenopus laevis oocytes; ±SD; n=8
# T5 construct: expressed in transfected cells; host or cells: Xenopus laevis oocytes injected with cRNA
# T5 sequence (P0C7B7 whole entry L204A): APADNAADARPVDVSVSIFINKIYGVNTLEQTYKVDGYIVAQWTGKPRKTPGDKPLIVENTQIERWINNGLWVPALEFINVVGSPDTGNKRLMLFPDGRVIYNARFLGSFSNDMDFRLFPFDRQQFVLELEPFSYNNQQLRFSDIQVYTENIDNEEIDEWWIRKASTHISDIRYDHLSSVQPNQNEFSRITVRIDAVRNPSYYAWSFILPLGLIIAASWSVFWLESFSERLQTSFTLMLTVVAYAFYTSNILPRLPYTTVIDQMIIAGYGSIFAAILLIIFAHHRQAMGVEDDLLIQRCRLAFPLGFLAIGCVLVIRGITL
# Text: as §1, §2
# ELIC Q263A = target: T6, ELIC Q263A (Dickeya chrysanthemi, UniProt P0C7B7, Q263A); assay: TEVC cysteamine-induced current, ELIC Q263A; format: cell-based; conditions: Xenopus laevis oocytes; ±SD; n=8
# T6 construct: expressed in transfected cells; host or cells: Xenopus laevis oocytes injected with cRNA
# T6 sequence (P0C7B7 whole entry Q263A): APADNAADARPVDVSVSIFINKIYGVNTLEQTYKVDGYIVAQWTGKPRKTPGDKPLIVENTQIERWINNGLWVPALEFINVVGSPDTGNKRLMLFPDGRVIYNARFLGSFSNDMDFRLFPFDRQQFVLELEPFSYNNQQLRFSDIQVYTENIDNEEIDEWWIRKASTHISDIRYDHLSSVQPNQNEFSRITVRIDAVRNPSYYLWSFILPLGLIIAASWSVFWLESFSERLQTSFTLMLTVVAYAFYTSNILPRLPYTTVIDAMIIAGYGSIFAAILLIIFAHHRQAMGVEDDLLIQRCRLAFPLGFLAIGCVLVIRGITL
# Text: as §1, §2
# ELIC W219A + F303A = target: T7, ELIC W219A + F303A (Dickeya chrysanthemi, UniProt P0C7B7, F303A/W219A); assay: TEVC cysteamine-induced current, ELIC W219A + F303A; format: cell-based; conditions: Xenopus laevis oocytes; ±SD; n=8
# T7 construct: expressed in transfected cells; host or cells: Xenopus laevis oocytes injected with cRNA (pTLN plasmid)
# T7 sequence (P0C7B7 whole entry W219A/F303A): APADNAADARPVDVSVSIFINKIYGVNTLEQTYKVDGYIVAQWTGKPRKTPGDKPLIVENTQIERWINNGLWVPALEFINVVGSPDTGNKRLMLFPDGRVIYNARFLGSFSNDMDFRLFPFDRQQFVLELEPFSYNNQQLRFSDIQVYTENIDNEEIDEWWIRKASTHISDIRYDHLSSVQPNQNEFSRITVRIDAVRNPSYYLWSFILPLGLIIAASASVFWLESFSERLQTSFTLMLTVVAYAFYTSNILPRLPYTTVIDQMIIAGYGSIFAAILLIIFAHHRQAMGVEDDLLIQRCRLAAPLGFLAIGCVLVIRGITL
# Text: as §1, §2
# ELIC L213A = target: T8, ELIC L213A (Dickeya chrysanthemi, UniProt P0C7B7, L213A); assay: TEVC cysteamine-induced current, ELIC L213A; format: cell-based; conditions: Xenopus laevis oocytes; ±SD; n=8
# T8 construct: expressed in transfected cells; host or cells: Xenopus laevis oocytes injected with cRNA
# T8 sequence (P0C7B7 whole entry L213A): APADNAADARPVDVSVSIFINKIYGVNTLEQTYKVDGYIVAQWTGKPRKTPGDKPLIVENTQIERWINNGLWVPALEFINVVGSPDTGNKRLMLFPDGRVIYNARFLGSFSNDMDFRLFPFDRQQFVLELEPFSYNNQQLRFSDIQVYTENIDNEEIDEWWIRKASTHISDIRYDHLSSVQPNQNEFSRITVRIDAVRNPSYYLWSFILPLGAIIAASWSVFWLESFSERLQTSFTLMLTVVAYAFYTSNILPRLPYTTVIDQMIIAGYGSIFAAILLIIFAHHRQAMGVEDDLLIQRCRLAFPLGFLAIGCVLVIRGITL
# Text: as §1, §2
# ELIC C299A = system: ELIC C299A; parameters: method as in Henault et al.[9], [18], [29]; conditions: Xenopus laevis oocytes; ±SD; n=9; ref Henault et al.[9], [18], [29]; cited from earlier work
# ELIC F307A = system: ELIC F307A; parameters: method as in Henault et al.[9], [18], [29]; conditions: Xenopus laevis oocytes; ±SD; n=8; ref Henault et al.[9], [18], [29]; cited from earlier work
# ELIC F281A = target: T9, ELIC F281A (Dickeya chrysanthemi, UniProt P0C7B7, F281A); assay: TEVC cysteamine-induced current, ELIC F281A; format: cell-based; conditions: Xenopus laevis oocytes; ±SD; n=8
# T9 construct: expressed in transfected cells; host or cells: Xenopus laevis oocytes injected with cRNA
# T9 sequence (P0C7B7 whole entry F281A): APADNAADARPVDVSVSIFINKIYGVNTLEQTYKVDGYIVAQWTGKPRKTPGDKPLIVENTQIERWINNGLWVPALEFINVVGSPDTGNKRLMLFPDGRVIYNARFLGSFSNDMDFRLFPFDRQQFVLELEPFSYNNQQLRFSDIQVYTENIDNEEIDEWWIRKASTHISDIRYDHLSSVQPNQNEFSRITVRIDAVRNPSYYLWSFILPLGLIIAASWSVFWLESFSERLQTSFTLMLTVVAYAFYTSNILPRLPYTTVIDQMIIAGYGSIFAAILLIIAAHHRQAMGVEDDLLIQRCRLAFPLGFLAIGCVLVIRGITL
# Text: as §1, §2
# ELIC G268A = target: T10, ELIC G268A (Dickeya chrysanthemi, UniProt P0C7B7, G268A); assay: TEVC cysteamine-induced current, ELIC G268A; format: cell-based; conditions: Xenopus laevis oocytes; ±SD; n=8
# T10 construct: expressed in transfected cells; host or cells: Xenopus laevis oocytes injected with cRNA (pTLN plasmid)
# T10 sequence (P0C7B7 whole entry G268A): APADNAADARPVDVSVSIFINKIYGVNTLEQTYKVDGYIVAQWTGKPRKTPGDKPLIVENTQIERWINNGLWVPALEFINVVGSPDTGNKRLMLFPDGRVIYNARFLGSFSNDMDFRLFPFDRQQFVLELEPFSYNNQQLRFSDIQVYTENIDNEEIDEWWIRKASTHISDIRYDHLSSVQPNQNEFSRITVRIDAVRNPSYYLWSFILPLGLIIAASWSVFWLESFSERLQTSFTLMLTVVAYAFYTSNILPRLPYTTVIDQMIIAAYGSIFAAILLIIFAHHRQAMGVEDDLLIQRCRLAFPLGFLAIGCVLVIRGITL
# Text: as §1, §2
# ELIC I310A = system: ELIC I310A; parameters: method as in Henault et al.[9], [18], [29]; conditions: Xenopus laevis oocytes; ±SD; n=10; ref Henault et al.[9], [18], [29]; cited from earlier work
# ELIC L295A = system: ELIC L295A; parameters: method as in Henault et al.[9], [18], [29]; conditions: Xenopus laevis oocytes; ±SD; n=8; ref Henault et al.[9], [18], [29]; cited from earlier work
# ELIC V315A = system: ELIC V315A; parameters: method as in Henault et al.[9], [18], [29]; conditions: Xenopus laevis oocytes; ±SD; n=9; ref Henault et al.[9], [18], [29]; cited from earlier work
# ELIC I208A = target: T11, ELIC I208A (Dickeya chrysanthemi, UniProt P0C7B7, I208A); assay: TEVC cysteamine-induced current, ELIC I208A; format: cell-based; conditions: Xenopus laevis oocytes; ±SD; n=8
# T11 construct: expressed in transfected cells; host or cells: Xenopus laevis oocytes injected with cRNA
# T11 sequence (P0C7B7 whole entry I208A): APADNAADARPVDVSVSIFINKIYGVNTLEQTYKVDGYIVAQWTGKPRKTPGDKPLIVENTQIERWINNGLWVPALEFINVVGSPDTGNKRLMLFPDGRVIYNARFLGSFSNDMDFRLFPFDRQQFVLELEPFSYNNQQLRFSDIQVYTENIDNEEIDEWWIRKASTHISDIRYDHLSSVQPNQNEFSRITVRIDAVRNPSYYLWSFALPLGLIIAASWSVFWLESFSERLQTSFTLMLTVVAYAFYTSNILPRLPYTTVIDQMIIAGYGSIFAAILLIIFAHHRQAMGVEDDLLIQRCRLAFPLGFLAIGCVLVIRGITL
# Text: as §1, §2
# ELIC I319A = system: ELIC I319A; parameters: method as in Henault et al.[9], [18], [29]; conditions: Xenopus laevis oocytes; ±SD; n=11; ref Henault et al.[9], [18], [29]; cited from earlier work
structure (smiles),measurement,setting,value
NCCS [cysteamine],EC50,ELIC L209A,290 ± 50 µM
same,−logEC50,ELIC L209A,3.54 ± 0.08
same,EC50,ELIC W219A + F307A,450 ± 70 µM
same,−logEC50,ELIC W219A + F307A,3.35 ± 0.07
same,EC50,ELIC I296A,270 ± 30 µM
same,−logEC50,ELIC I296A,3.57 ± 0.05
same,EC50,ELIC L278A,1070 ± 100 µM
same,−logEC50,ELIC L278A,2.97 ± 0.04
same,EC50,ELIC I215A,320 ± 40 µM
same,−logEC50,ELIC I215A,3.49 ± 0.05
same,EC50,ELIC L204A,3550 ± 310 µM
same,−logEC50,ELIC L204A,2.45 ± 0.04
same,EC50,ELIC Q263A,580 ± 40 µM
same,−logEC50,ELIC Q263A,3.24 ± 0.03
same,EC50,ELIC W219A + F303A,550 ± 120 µM
same,−logEC50,ELIC W219A + F303A,3.26 ± 0.10
same,EC50,ELIC L213A,320 ± 20 µM
same,−logEC50,ELIC L213A,3.49 ± 0.03
same,EC50,ELIC C299A,560 ± 80 µM
same,−logEC50,ELIC C299A,3.25 ± 0.06
same,EC50,ELIC F307A,570 ± 90 µM
same,−logEC50,ELIC F307A,3.24 ± 0.07
same,EC50,ELIC F281A,880 ± 50 µM
same,−logEC50,ELIC F281A,3.06 ± 0.02
same,EC50,ELIC G268A,1190 ± 140 µM
same,−logEC50,ELIC G268A,2.92 ± 0.05
same,EC50,ELIC I310A,880 ± 90 µM
same,−logEC50,ELIC I310A,3.05 ± 0.04
same,EC50,ELIC L295A,500 ± 100 µM
same,−logEC50,ELIC L295A,3.30 ± 0.09
same,EC50,ELIC V315A,600 ± 80 µM
same,−logEC50,ELIC V315A,3.22 ± 0.06
same,EC50,ELIC I208A,250 ± 50 µM
same,−logEC50,ELIC I208A,3.60 ± 0.09
same,EC50,ELIC I319A,860 ± 160 µM
